Results published in the NIST ThermoML archive (doi:10.1016/j.tca.2013.03.018).

Details: Liquid, DSC

CCCCCCCCO [octan-1-ol]
Details | vapor or sublimation pressure [kPa]
333.69 K | 0.2242
333.97 K | 0.2242
334.46 K | 0.2376
341.76 K | 0.3855
342.1 K | 0.3855
343.33 K | 0.372
344.5 K | 0.3855
348.2 K | 0.5736
348.72 K | 0.587
349.1 K | 0.6004
349.38 K | 0.587
352.09 K | 0.7483
352.98 K | 0.802
353.96 K | 0.8087
354.96 K | 0.7886
357.9 K | 1.071
357.94 K | 1.057
357.99 K | 1.057
358.41 K | 1.071
362.88 K | 1.434
363.3 K | 1.447
363.51 K | 1.46
364.35 K | 1.474
369.69 K | 2.105
369.76 K | 2.092
369.9 K | 2.132
370 K | 2.132
379.04 K | 3.436
379.35 K | 3.489
379.45 K | 3.489
379.49 K | 3.489
387.2 K | 5.169
387.28 K | 5.156
387.87 K | 5.182
387.92 K | 5.169
407.24 K | 13.57
408.44 K | 13.58
408.9 K | 13.55
409.3 K | 13.55
435.48 K | 40.47
438.31 K | 40.53
438.58 K | 40.53
438.8 K | 40.53
468.15 K | 101.4
468.47 K | 101.4
